# Assay results from PubChem BioAssay (NCI).
#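 Cells were grown in 96-well plates and exposed to each compound for 48 hours at five concentrations; endpoints were interpolated linearly between bracketing concentrations, or set to the highest concentration if not reached. GI50 is the concentration that inhibits growth by half. TGI denotes the concentration required for complete inhibition of growth.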
# Experiments:
# Assay in all cases: NCI-60 cell line screen, 48 h
# [1] = test system: SR leukemia
# [2] = test system: BT-549 breast
# [3] = test system: M14 melanoma
# [4] = test system: RPMI-8226 leukemia
# [5] = test system: MDA-MB-435
# [6] = test system: HS 578T breast
# [7] = test system: T-47D breast
# [8] = test system: SNB-19 CNS
# [9] = test system: SF-295 CNS
# [10] = test system: OVCAR-3 ovarian
# [11] = test system: SF-539 CNS
# [12] = test system: U251 CNS
# [13] = test system: OVCAR-5 ovarian
# [14] = test system: SK-OV-3 ovarian
# [15] = test system: SK-MEL-5 melanoma
# [16] = test system: MALME-3M melanoma
# [17] = test system: TK-10 renal
# [18] = test system: DU-145 prostate
# [19] = test system: HL-60(TB) leukemia
# [20] = test system: OVCAR-4 ovarian
# [21] = test system: SN12C renal
# [22] = test system: UACC-62 melanoma
# [23] = test system: SK-MEL-28 melanoma
# [24] = test system: KM12 colon
# [25] = test system: 786-0 renal
# [26] = test system: HOP-92 NSCLC
# [27] = test system: HOP-62 NSCLC
# [28] = test system: MDA-MB-231 breast
# [29] = test system: UACC-257 melanoma
# [30] = test system: MOLT-4 leukemia
# [31] = test system: EKVX NSCLC
# [32] = test system: A549 NSCLC
# [33] = test system: SF-268 CNS
# [34] = test system: SK-MEL-2 melanoma
# [35] = test system: UO-31 renal
# [36] = test system: NCI/ADR-RES ovarian
# [37] = test system: RXF 393 renal
# [38] = test system: ACHN renal
# [39] = test system: LOX IMVI melanoma
# [40] = test system: MCF7 breast
# [41] = test system: SNB-75 CNS
# [42] = test system: OVCAR-8 ovarian
# [43] = test system: IGROV1 ovarian
# [44] = test system: NCI-H460 lung
# [45] = test system: HCT-116 colon
# [46] = test system: HCT-15 colon
# [47] = test system: HCC-2998 colon
# [48] = test system: CAKI-1 renal
# [49] = test system: PC-3 prostate
# [50] = test system: HT29 colon
# [51] = test system: COLO 205 colon
# [52] = test system: K-562 leukemia
# [53] = test system: NCI-H226 lung
# [54] = test system: NCI-H522 lung
# [55] = test system: A498 renal
# [56] = test system: SW-620 colon
# [57] = test system: CCRF-CEM leukemia
compound,measurement,setting,value
NS(=O)(=O)c1cccc(Nc2nc(SCC(=O)c3ccc([N+](=O)[O-])cc3)nc3ccccc23)c1,GI50,[1],21.1 µM
same,TGI,[1],> 100 µM
same,GI50,[2],11.3 µM
same,TGI,[2],51.5 µM
same,GI50,[3],31.6 µM
same,TGI,[3],> 100 µM
same,GI50,[4],16.1 µM
same,TGI,[4],83 µM
same,GI50,[5],44.9 µM
same,TGI,[5],> 100 µM
same,GI50,[6],35.2 µM
same,TGI,[6],> 100 µM
same,GI50,[7],9.95 µM
same,TGI,[7],65.4 µM
same,GI50,[8],> 100 µM
same,TGI,[8],> 100 µM
same,GI50,[9],38.3 µM
same,TGI,[9],> 100 µM
same,GI50,[10],19.6 µM
same,TGI,[10],72.9 µM
same,GI50,[11],31.3 µM
same,TGI,[11],> 100 µM
same,GI50,[12],58.2 µM
same,TGI,[12],> 100 µM
same,GI50,[13],> 100 µM
same,TGI,[13],> 100 µM
same,GI50,[14],63.2 µM
same,TGI,[14],> 100 µM
same,GI50,[15],22.3 µM
same,TGI,[15],88.1 µM
same,GI50,[16],44.5 µM
same,TGI,[16],> 100 µM
same,GI50,[17],54.5 µM
same,TGI,[17],> 100 µM
same,GI50,[18],28.7 µM
same,TGI,[18],> 100 µM
same,GI50,[19],22.2 µM
same,TGI,[19],64.3 µM
same,GI50,[20],26.6 µM
same,TGI,[20],> 100 µM
same,GI50,[21],40.9 µM
same,TGI,[21],> 100 µM
same,GI50,[22],16.3 µM
same,TGI,[22],37.3 µM
same,GI50,[23],34.9 µM
same,TGI,[23],> 100 µM
same,GI50,[24],37.6 µM
same,TGI,[24],> 100 µM
same,GI50,[25],48.5 µM
same,TGI,[25],> 100 µM
same,GI50,[26],14 µM
same,TGI,[26],> 100 µM
same,GI50,[27],28.8 µM
same,TGI,[27],> 100 µM
same,GI50,[28],> 100 µM
same,TGI,[28],> 100 µM
same,GI50,[29],30.1 µM
same,TGI,[29],> 100 µM
same,GI50,[30],12.9 µM
same,TGI,[30],45.1 µM
same,GI50,[31],32.9 µM
same,TGI,[31],> 100 µM
same,GI50,[32],32 µM
same,TGI,[32],> 100 µM
same,GI50,[33],43.7 µM
same,TGI,[33],> 100 µM
same,GI50,[34],14.4 µM
same,TGI,[34],44 µM
same,GI50,[35],32.6 µM
same,TGI,[35],> 100 µM
same,GI50,[36],> 100 µM
same,TGI,[36],> 100 µM
same,GI50,[37],23.2 µM
same,TGI,[37],> 100 µM
same,GI50,[38],30.6 µM
same,TGI,[38],> 100 µM
same,GI50,[39],31.4 µM
same,TGI,[39],> 100 µM
same,GI50,[40],12.4 µM
same,TGI,[40],> 100 µM
same,GI50,[41],> 100 µM
same,TGI,[41],> 100 µM
same,GI50,[42],25.3 µM
same,TGI,[42],> 100 µM
same,GI50,[43],24 µM
same,TGI,[43],> 100 µM
same,GI50,[44],26.2 µM
same,TGI,[44],> 100 µM
same,GI50,[45],31.3 µM
same,TGI,[45],> 100 µM
same,GI50,[46],38.7 µM
same,TGI,[46],> 100 µM
same,GI50,[47],31.7 µM
same,TGI,[47],> 100 µM
same,GI50,[48],32.1 µM
same,TGI,[48],> 100 µM
same,GI50,[49],20.2 µM
same,TGI,[49],> 100 µM
same,GI50,[50],38.8 µM
same,TGI,[50],> 100 µM
same,GI50,[51],40.3 µM
same,TGI,[51],> 100 µM
same,GI50,[52],23.6 µM
same,TGI,[52],> 100 µM
same,GI50,[53],21.2 µM
same,TGI,[53],70.8 µM
same,GI50,[54],20.1 µM
same,TGI,[54],89.6 µM
same,GI50,[55],38.4 µM
same,TGI,[55],> 100 µM
same,GI50,[56],64.2 µM
same,TGI,[56],> 100 µM
same,GI50,[57],20.3 µM
same,TGI,[57],> 100 µM
